Measurements published in patent US8354547B2, “4β-amino podophyllotoxin congeners as anti tumour antibiotics a process for the preparation thereof” (Council of Scientific & Industrial Research, priority 2008, dated 2013).

Assays:
[1] = tested on: Colon (SW-620) cancer cell line; experiment: SRB in vitro cytotoxicity assay, Colon SW-620; assay type: cell-based, human; conditions: concentration 1 × 10^−5 (μM/mL)
Method: (§1) Single cell suspension of the tumor cells grown in tissue culture were made, cells counted and cell count adjusted to 1×10^5 to 5×10^5 Ninetysix (96) well plates were seeded with this cell suspension, each well receiving 100 μl of it. The plate was then be incubated at 37° C. temperature in CO2 incubator for 24 hours. Drugs were added at appropriate concentrations after 24-hour, incubation followed by further incubation for 48 hours. Experiment was terminated by gently layering the cells in the wells with 30% TCA and plates were kept in refrigerator for 1 hour following which they were washed thoroughly with tap water, dried attained with 0.4% SRB in 1% acetic aid and finally, the bound SRB eluted with 10 mM tris. Absorbance was read at 540 nm, in the microtitre-plate reader. Optical density of drug-treated cells was compared with that of control cells and cell inhibition was calculated as percent values. […]

[2] = tested on: Liver (HEP-2) cancer cell line; experiment: SRB in vitro cytotoxicity assay, Liver HEP-2; assay type: cell-based, human; conditions: concentration 1 × 10^−5 (μM/mL)
Method: as §1

Lukemia (HL-60) cells = experiment: DNA cell cycle analysis by flow cytometry; assay type: cell-based; conditions: 0.5, 1, 5, and 10 μM, 24 hr (FIG. 5)
Method: (§2) Compound 3d evaluated for DNA laddering assay.
Effect of compound 3d on DNA content by cell cycle phase distribution was assessed using HL-60 cells by incubating the HL-60 cells (1×10^6) 1 ml phosphate buffer saline were treated with 3d (0.5, 1, 5, 10 μM) for 24 hr. The cells were then washed twice with ice-cold PBS, harvested, fixed with ice cold PBS in 70% ethanol, and stored at −20° C. for 30 minutes. After Fixation, these cells were incubated with RNase A (0.1 mg/ml) at 37° C. for 30 min, stained with propidium iodide (50 μg/ml) for 30 min on ice in dark, and then measured for DNA content using BD-LSR flow cytometer (Becton Dickinson, USA) equipped with electronic doublet discrimination capability using blue (488 nm) excitation from orgon laser. Data were collected in list mode on 10,000 events for FL2-A vs. FL2-W (FIG. 5).

[3] = tested on: Breast (MCF-7) cancer cell line; experiment: SRB in vitro cytotoxicity assay, Breast MCF-7; assay type: cell-based, human; conditions: concentration 1 × 10^−5 (μM/mL)
Method: as §1

[4] = tested on: Colon (Colo-205) cancer cell line; experiment: SRB in vitro cytotoxicity assay, Colon Colo-205; assay type: cell-based, human; conditions: concentration 1 × 10^−5 (μM/mL)
Method: as §1

[5] = tested on: CNS (SK-N-SH) cancer cell line; experiment: SRB in vitro cytotoxicity assay, CNS SK-N-SH; assay type: cell-based, human; conditions: concentration 1 × 10^−5 (μM/mL)
Method: as §1

leukemia (MOLT-4) cells = experiment: DNA laddering (fragmentation) assay by gel electrophoresis; assay type: cell-based; conditions: 0.5, 1, 5, and 10 μM, 24 hr incubation (FIG. 4)
Method: as §2
DNA fragmentation was determined by electrophoresis of extracted genomic DNA form leukemia cell (MOLT4). Briefly, exponentially growing cells (2×10^6 cells/mL) in 6 well plate were treated with compound 3d in 0.5, 1, 5 and 10 μM concentrations for 24 hrs. Cells were harvested, washed with PBS, pellets were dissolved in lyris buffer (10 mM EDTA, 50 mM Tris pH 8.0, 0.5% w/v SDS and proteinase K (0.5 mg/mL) and incubated at 50° C. for 1 hr. Finally the DNA obtained was heated rapidly to 70° C., supplemented with loading dye and immediately resolved on to 1.5% agarose gel at 50 V for 2-3 hrs (FIG. 4).

Topoisomerase-I = molecular target: T1, Topoisomerase-I (Homo sapiens, UniProt P11387); experiment: Topoisomerase-I relaxation assay; assay type: biochemical; conditions: at 100 μM (FIG. 2)
T1 sequence (P11387 1-765): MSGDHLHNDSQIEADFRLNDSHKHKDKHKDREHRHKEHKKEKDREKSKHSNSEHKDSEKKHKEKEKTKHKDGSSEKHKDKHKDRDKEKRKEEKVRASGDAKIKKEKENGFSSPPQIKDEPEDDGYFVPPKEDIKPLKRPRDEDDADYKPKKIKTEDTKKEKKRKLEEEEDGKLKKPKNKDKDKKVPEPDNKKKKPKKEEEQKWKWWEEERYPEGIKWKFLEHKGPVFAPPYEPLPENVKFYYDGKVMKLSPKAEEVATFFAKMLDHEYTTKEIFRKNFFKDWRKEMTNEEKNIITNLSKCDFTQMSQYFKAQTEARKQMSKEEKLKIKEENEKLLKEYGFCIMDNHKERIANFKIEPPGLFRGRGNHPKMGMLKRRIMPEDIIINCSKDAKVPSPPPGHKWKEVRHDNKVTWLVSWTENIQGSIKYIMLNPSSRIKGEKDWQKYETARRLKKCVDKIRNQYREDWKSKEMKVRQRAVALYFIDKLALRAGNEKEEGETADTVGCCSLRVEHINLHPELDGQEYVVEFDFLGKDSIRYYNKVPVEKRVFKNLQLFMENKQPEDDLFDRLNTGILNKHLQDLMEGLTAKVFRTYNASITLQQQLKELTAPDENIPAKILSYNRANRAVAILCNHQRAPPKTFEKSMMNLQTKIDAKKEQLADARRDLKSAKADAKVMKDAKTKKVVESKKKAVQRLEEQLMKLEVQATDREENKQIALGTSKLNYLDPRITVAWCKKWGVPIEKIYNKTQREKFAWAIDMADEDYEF
Method: Apart from this, some of these analogues were evaluated for Topoisomerase-I relaxation, Topoisomerase-II inhibition, DNA laddering assay and DNA cell cycle analysis. Compounds 3c, 4c, 3d and 4d were analyzed for topoisomerase-I assay at 100 μM (FIG. 2) only compound 3d was found active and rest were not active. Compounds 3d, 4d and 4c were analyzed for topoisomerase inhibition assay.
Reaction was assembled in micro centrifuge tube that contains super coiled DNA 250 ng/μl & Topoisomerase-I (4 units) in assay buffer (10 mM Tris-HCl, pH 7.9, 0.15 M NaCl, 0.1% BSA, and 5.0 mM (beta)-mercaptoethanol). In each reaction 2 μl sample was added then volume was made up to 20 μl with water and then incubated at 37° C. Reaction was terminated by addition of 2 μl of 10% SDS. Each sample tube was treated with proteinase K and extracted once with chloroform: isoamyl alcohol. Products were resolved by 0.8% agarose gel electrophoresis in TAE buffer (40 mM tris-acetate, pH 8.0, and 1 mM EDTA) and stained with 0.5 μg/ml ethedium bromide (EtBr).

[6] = tested on: Neuroblastoma (IMR-32) cancer cell line; experiment: SRB in vitro cytotoxicity assay, Neuroblastoma IMR-32; assay type: cell-based, human; conditions: concentration 1 × 10^−5 (μM/mL)
Method: as §1

SMILES: COc1cc([C@@H]2c3cc4c(cc3[C@@H](Nc3cc5c6ccccc6ccc5c5ccccc35)[C@@H]3COC(=O)[C@H]23)OCO4)cc(OC)c1OC [Compound 3d, 4β-(6″-Chrycenylamino)-4-desoxypodophyllotoxin]
- Growth Inhibition(%) Colon SW-620 [1]: 14%
- Growth Inhibition(%) Liver HEP-2 [2]: 66%
- cell cycle phase block (Lukemia (HL-60) cells): blocks the G1 Phase
- sub G1 cell population (apoptosis) (Lukemia (HL-60) cells): increase
- Growth Inhibition(%) Breast MCF-7 [3]: 0%
- Growth Inhibition(%) Colon Colo-205 [4]: 51%
- Growth Inhibition(%) CNS SK-N-SH [5]: 73%
- DNA fragmentation (leukemia (MOLT-4) cells): induced DNA fragmentation
- activity in topoisomerase-I assay (Topoisomerase-I): active
- Growth Inhibition(%) Neuroblastma IMR-32 [6]: 1%
